Data on 44 molecules can be found in ChEMBL document CHEMBL4428049, “Design and synthesis of aminothiazole modulators of the gamma-secretase enzyme” (Bioorg Med Chem Lett, 2016).

By IC50 is commonly meant the concentration needed to halve the response being measured.

In brackets after ≈: the same amount, converted by molar mass.

The nature of series [1]: Modulation of gamma-secretase in CHO cells expressing human APP695 assessed as inhibition of Abeta42 level after 20 hrs by FRET HTS assay. To be noted: Cricetulus griseus. The series is classed as cell-based.
Series [2] is described as follows: Kinetic solubility in PBS buffer at pH 7.4 by UV/vis absorbance analysis. It is filed as physicochemical. To be noted: read-out: Kinetic_solubility.
Series [3] concerns the target Gamma-secretase. In words: Modulation of gamma-secretase in human SH-SY5Y cells overexpressing wild-type human APP751 assessed as inhibition of Abeta42 level after 24 hrs by ELISA. The series is classed as cell-based. In general terms: ELISA stands for enzyme-linked immunosorbent assay.

For `CCc1cc(Nc2nc(-c3ccc(-n4cnc(C)c4)c(F)c3)cs2)c(C)cc1C`, in series [1], the IC50 was 0.01 µM. Turning to `CCn1nc2c(c1Nc1nc(-c3ccc(-n4cnc(C)c4)c(F)c3)cs1)CCC2`, the solubility kinetic in series [2] was less than 1.6 µM. Moreover, the IC50 in series [3] stood at 0.041 µM. Regarding `Cc1cn(-c2ccc(-c3csc(Nc4c5c(nn4C(C)(C)C)CCC5)n3)cc2F)cn1`, in series [3], the IC50 was 0.175 µM. On the same count and under the same terms, under `Cc1cn(-c2ccc(-c3csc(Nc4cc(C(C)(C)C)nn4C)n3)cc2F)cn1` stands 0.294 µM; under `CCn1nc2c(c1N(C)c1nc(-c3ccc(-n4cnc(C)c4)c(F)c3)cs1)CCCC2`, more than 1 µM. Take `CCn1nc(C(F)(F)F)cc1Nc1nc(-c2ccc(-n3cnc(C)c3)c(F)c2)cs1`: the solubility kinetic in series [2] is less than 1.6 µM. Moreover, in series [3], the IC50 came out at 0.11 µM. As to `Cc1cn(-c2ccc(-c3csc(Nc4c5c(nn4CCN4CCCCC4)CCCC5)n3)cc2F)cn1`, in series [2], the solubility kinetic was found to be 8.1 µM (≈ 4.1 µg/mL). The IC50 in series [3] amounted to 0.475 µM. Turning to `Cc1cn(-c2ccc(-c3csc(Nc4c5c(nn4CC(F)(F)F)CCCC5)n3)cc2F)cn1`, in series [3], the half-maximal inhibitory concentration (IC50) stood at 0.179 µM. For the molecule `Cc1cn(-c2ccc(-c3csc(Nc4c5c(nn4CCO)CCCC5)n3)cc2F)cn1`, in series [2], the solubility kinetic came out at 15 µM (≈ 6.58 µg/mL). Besides, the IC50 in series [3] turned out to be 0.362 µM. For `CCn1nc2c(c1Nc1nc(-c3ccc(-n4cnc(C)c4)c(F)c3)cs1)CCCCC2`, the IC50 in series [3] came to 0.114 µM. In the case of `Cc1cn(-c2ccc(-c3csc(Nc4c5c(nn4C)CCC5)n3)cc2F)cn1`, in series [3], the IC50 is more than 1 µM. For the molecule `Cc1cn(-c2ccc(-c3csc(Nc4c5c(nn4C(C)(C)C)CCCC5)n3)cc2F)cn1`, the IC50 in series [3] came out at 0.216 µM. On to `CCn1nc2c(c1Nc1nc(-c3ccc(-n4cnc(C)c4)c(F)c3)cs1)C(C)CC2(C)C` (stereo not drawn), for which the solubility kinetic in series [2] stood at 2.6 µM (≈ 1.17 µg/mL). For the same molecule, the IC50 in series [3] is 0.049 µM. Consider `CCn1nc(C(C)C)cc1Nc1nc(-c2ccc(-n3cnc(C)c3)c(F)c2)cs1`, for which the half-maximal inhibitory concentration (IC50) in series [3] stood at 0.394 µM. Take `CCCn1nc2c(c1Nc1nc(-c3ccc(-n4cnc(C)c4)c(F)c3)cs1)CCCC2`: the half-maximal inhibitory concentration (IC50) in series [3] was 0.148 µM. As for `Cc1cn(-c2ccc(-c3csc(Nc4c5c(nn4C4CCC4)CCCC5)n3)cc2F)cn1`, in series [2], the solubility kinetic was less than 1.6 µM. In addition, in series [3], the 50% inhibitory concentration (IC50) worked out at 0.112 µM. On to `Cc1cn(-c2ccc(-c3csc(Nc4c5c(nn4C4CCCC4)CCCC5)n3)cc2F)cn1`, for which the IC50 in series [3] stood at 0.225 µM. For the molecule `Cc1cn(-c2ccc(-c3csc(Nc4c5c(nn4CC(C)(C)O)CCCC5)n3)cc2F)cn1`, the solubility kinetic in series [2] was less than 1.6 µM. Also, the half-inhibitory concentration (IC50) in series [3] worked out at 0.055 µM. With `CCn1nc2c(c1Nc1nc(-c3ccc(-n4cnc(C)c4)c(F)c3)cs1)CCCC2`, the IC50 in series [3] came to 0.163 µM. For the molecule `Cc1cn(-c2ccc(-c3csc(Nc4cc(C(F)(F)F)nn4CC(F)(F)F)n3)cc2F)cn1`, the IC50 in series [3] is 0.771 µM. On to `Cc1cn(-c2ccc(-c3csc(Nc4c5c(nn4C4CCCCC4)CCCC5)n3)cc2F)cn1`, for which the half-maximal inhibitory concentration (IC50) in series [3] worked out at 0.28 µM. Consider `Cc1cn(-c2ccc(-c3csc(Nc4c5c(nn4C4CCN(C)CC4)CCCC5)n3)cc2F)cn1`, for which the solubility kinetic in series [2] came out at 2.8 µM (≈ 1.38 µg/mL). Moreover, the 50% inhibitory concentration (IC50) in series [3] was more than 1 µM.

Take `Cc1cn(-c2ccc(-c3csc(Nc4c5c(nn4CCCN4CCOCC4)CCCC5)n3)cc2F)cn1`: the solubility kinetic in series [2] came out at 16 µM (≈ 8.35 µg/mL). Further, in series [3], the IC50 was found to be 0.27 µM. In the case of `Cc1cn(-c2ccc(-c3csc(Nc4cc(C(C)(C)C)nn4CC(F)(F)F)n3)cc2F)cn1`, in series [2], the solubility kinetic was less than 1.6 µM. The 50% inhibitory concentration (IC50) in series [3] came to 0.087 µM. For `Cc1cn(-c2ccc(-c3csc(Nc4c5c(nn4CCN4CCOCC4)CCCC5)n3)cc2F)cn1`, the concentration for half-maximal inhibition (IC50) in series [3] is more than 1 µM. On to `CCn1nc(C2(C)CC2)cc1Nc1nc(-c2ccc(-n3cnc(C)c3)c(F)c2)cs1`, for which the solubility kinetic in series [2] was less than 1.6 µM. Besides, the IC50 in series [3] amounted to 0.067 µM. In the case of `Cc1cn(-c2ccc(-c3csc(Nc4c5c(nn4C(C)C)CCCC5)n3)cc2F)cn1`, the IC50 in series [3] came to 0.195 µM.

`CCn1nc2c(c1Nc1nc(-c3ccc(-n4cnc(C)c4)c(F)c3)cs1)CCC2(C)C`: the solubility kinetic in series [2] came to 2.1 µM (≈ 0.917 µg/mL). Further, the 50% inhibitory concentration (IC50) in series [3] amounted to 0.062 µM.

Consider `CCCn1nc(C(C)(C)C)cc1Nc1nc(-c2ccc(-n3cnc(C)c3)c(F)c2)cs1`, for which the solubility kinetic in series [2] is less than 1.6 µM. Further, the IC50 in series [3] was 0.086 µM. With `Cc1cn(-c2ccc(-c3csc(Nc4[nH]nc5c4CCCC5)n3)cc2F)cn1`, the half-inhibitory concentration (IC50) in series [3] is more than 1 µM. For the molecule `Cc1cn(-c2ccc(-c3csc(Nc4c5c(nn4C(C)C)CCC5)n3)cc2F)cn1`, the solubility kinetic in series [2] was less than 1.6 µM. In addition, the IC50 in series [3] was determined as 0.066 µM. For `Cc1cn(-c2ccc(-c3csc(Nc4c5c(nn4C4CCOC4)CCCC5)n3)cc2F)cn1` (stereo not drawn), the IC50 in series [3] came out at 0.289 µM. As for `Cc1cn(-c2ccc(-c3csc(Nc4cc(C(C)(C)C)nn4C(C)(C)C)n3)cc2F)cn1`, the solubility kinetic in series [2] was found to be 2 µM (≈ 0.905 µg/mL). Moreover, the concentration for half-maximal inhibition (IC50) in series [3] is 0.085 µM. Regarding `Cc1cn(-c2ccc(-c3csc(Nc4c5c(nn4C)CCCC5)n3)cc2F)cn1`, in series [3], the IC50 turned out to be 0.208 µM. With `Cc1cn(-c2ccc(-c3csc(Nc4c5c(nn4CC(F)(F)F)CCC5)n3)cc2F)cn1`, the solubility kinetic in series [2] is less than 1.6 µM. In addition, the IC50 in series [3] is 0.094 µM. As to `Cc1cn(-c2ccc(-c3csc(Nc4c5c(nn4C4CCC4)CCC5)n3)cc2F)cn1`, the solubility kinetic in series [2] is less than 1.6 µM. Further, in series [3], the IC50 came out at 0.092 µM. As to `Cc1cn(-c2ccc(-c3csc(Nc4c5c(nn4CCCO)CCCC5)n3)cc2F)cn1`, in series [3], the IC50 is 0.229 µM. Consider `Cc1cn(-c2ccc(-c3csc(Nc4c5c(nn4CCF)CCCC5)n3)cc2F)cn1`, for which the half-inhibitory concentration (IC50) in series [3] was found to be 0.11 µM. In the case of `Cc1cn(-c2ccc(-c3csc(Nc4c5c(nn4CCO)CCC5)n3)cc2F)cn1`, in series [2], the solubility kinetic is less than 1.6 µM. In series [3], the IC50 is more than 1 µM. Take `CCn1nccc1Nc1nc(-c2ccc(-n3cnc(C)c3)c(F)c2)cs1`: the IC50 in series [3] was more than 1 µM.

As to `Cc1cn(-c2ccc(-c3csc(Nc4c5c(nn4C4CCOCC4)CCCC5)n3)cc2F)cn1`, in series [3], the IC50 was determined as 0.766 µM. `Cc1cn(-c2ccc(-c3csc(Nc4cc(C(F)(F)F)nn4C(C)(C)C)n3)cc2F)cn1`: the half-inhibitory concentration (IC50) in series [3] came out at 0.121 µM.

Regarding `Cc1cn(-c2ccc(-c3csc(Nc4cc(C(C)(C)C)nn4C(C)C)n3)cc2F)cn1`, the IC50 in series [3] is 0.087 µM. As to `COCCn1nc2c(c1Nc1nc(-c3ccc(-n4cnc(C)c4)c(F)c3)cs1)CCCC2`, the solubility kinetic in series [2] worked out at 2.3 µM (≈ 1.04 µg/mL). Further, the half-maximal inhibitory concentration (IC50) in series [3] turned out to be 0.272 µM.
